Legend:
[1] = Lipophilicity, chromatographic logD of compound at pH 7.4; conditions: buffer
[2] = Unbound clearance in Sprague-Dawley rat; format: ADME; conditions: in vivo
[3] = biological target: Transient receptor potential cation channel subfamily V member 4 (Homo sapiens, UniProt Q9HBA0); test: Inhibition of human TRPV4 expressed in baculovirus infected HEK/MSR 2 cells pre-incubated for 10 mins followed by GSK634775A addition by Fura-2 dye based FLIPR assay
[4] = Volume of distribution at steady state in Sprague-Dawley rat at 1 mg/kg, iv measured after 24 hrs by HPLC-MS/MS analysis; format: ADME, organism-based; conditions: in vivo, read-out: Vdss
[5] = Clearance in Sprague-Dawley rat at 1 mg/kg, iv measured after 24 hrs by HPLC-MS/MS analysis; format: ADME, organism-based; conditions: in vivo
[6] = Mean residence time in Sprague-Dawley rat at 1 mg/kg, iv measured after 24 hrs by HPLC-MS/MS analysis; format: ADME, organism-based; conditions: in vivo
[7] = Oral bioavailability in Sprague-Dawley rat at 2 mg/kg measured after 24 hrs by HPLC-MS/MS analysis; format: ADME, organism-based; conditions: in vivo
[8] = Unbound fraction in Sprague-Dawley rat plasma; format: ADME, cell-free
[9] = biological target: Transient receptor potential cation channel subfamily V member 4 (Rattus norvegicus, UniProt Q9ERZ8); test: Inhibition of rat TRPV4 expressed in baculovirus infected HEK/MSR 2 cells pre-incubated for 10 mins followed by GSK634775A addition by Fura-2 dye based FLIPR assay
Sequence of Transient receptor potential cation channel subfamily V member 4 (Rattus norvegicus, UniProt Q9ERZ8) (Q9ERZ8 whole entry): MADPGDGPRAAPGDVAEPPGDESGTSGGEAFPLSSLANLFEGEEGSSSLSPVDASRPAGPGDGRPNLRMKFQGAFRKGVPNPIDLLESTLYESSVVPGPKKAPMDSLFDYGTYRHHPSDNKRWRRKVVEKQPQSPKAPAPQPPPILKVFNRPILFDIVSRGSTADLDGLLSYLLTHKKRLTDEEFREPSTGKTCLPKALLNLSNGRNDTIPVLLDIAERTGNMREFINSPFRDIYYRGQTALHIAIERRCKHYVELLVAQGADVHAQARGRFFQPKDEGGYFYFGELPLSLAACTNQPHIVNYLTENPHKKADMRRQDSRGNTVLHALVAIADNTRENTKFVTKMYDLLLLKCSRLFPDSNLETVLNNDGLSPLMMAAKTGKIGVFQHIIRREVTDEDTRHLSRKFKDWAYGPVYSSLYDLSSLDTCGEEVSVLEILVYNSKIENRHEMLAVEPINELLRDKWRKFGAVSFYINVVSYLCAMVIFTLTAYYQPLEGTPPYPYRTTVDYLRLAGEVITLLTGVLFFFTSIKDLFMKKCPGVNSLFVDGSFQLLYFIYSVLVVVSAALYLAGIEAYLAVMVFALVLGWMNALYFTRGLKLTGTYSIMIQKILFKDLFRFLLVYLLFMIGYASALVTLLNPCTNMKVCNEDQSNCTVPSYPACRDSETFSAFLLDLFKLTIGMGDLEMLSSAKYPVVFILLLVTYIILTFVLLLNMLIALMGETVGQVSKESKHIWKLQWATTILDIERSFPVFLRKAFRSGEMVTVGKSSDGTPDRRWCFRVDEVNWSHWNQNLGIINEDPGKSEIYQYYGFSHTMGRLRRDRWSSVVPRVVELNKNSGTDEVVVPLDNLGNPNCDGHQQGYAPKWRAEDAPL

[10] = Unbound volume of distribution at steady state in Sprague-Dawley rat; format: ADME; conditions: in vivo

Sequence of Transient receptor potential cation channel subfamily V member 4 (Homo sapiens, UniProt Q9HBA0) (Q9HBA0 whole entry): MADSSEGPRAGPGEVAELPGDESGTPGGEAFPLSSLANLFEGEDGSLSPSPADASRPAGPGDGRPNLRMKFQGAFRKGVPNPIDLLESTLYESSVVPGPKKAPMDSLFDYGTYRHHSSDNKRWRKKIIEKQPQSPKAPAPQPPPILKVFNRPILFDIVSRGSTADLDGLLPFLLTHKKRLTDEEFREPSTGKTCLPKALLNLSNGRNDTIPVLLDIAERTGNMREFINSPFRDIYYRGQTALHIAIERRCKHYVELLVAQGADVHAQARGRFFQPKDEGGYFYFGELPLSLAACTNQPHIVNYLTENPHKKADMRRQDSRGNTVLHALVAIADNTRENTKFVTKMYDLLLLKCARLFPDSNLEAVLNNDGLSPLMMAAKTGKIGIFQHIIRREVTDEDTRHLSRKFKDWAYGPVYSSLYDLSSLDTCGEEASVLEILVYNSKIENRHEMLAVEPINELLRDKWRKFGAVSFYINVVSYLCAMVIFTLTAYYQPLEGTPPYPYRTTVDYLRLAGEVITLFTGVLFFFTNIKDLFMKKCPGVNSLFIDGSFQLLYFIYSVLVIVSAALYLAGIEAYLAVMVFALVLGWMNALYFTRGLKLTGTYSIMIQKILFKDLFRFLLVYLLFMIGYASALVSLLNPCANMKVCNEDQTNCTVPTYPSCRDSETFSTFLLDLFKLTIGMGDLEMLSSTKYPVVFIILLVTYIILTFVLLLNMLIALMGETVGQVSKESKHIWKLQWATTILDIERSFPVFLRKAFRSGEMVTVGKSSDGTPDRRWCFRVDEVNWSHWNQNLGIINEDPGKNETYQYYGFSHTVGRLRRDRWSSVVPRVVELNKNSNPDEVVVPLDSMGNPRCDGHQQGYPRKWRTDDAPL

Compound | ChromLogD [1] | CL free [2] | IC50 [3] | Vd [4] | clearance [5] | MRT [6] | bioavailability [7] | fraction unbound [8] | IC50 [9] | Vduss [10]
COc1cnc(N2C[C@@]3(CCC[C@](C)(Cn4cnc5ccc(C#N)cc54)C3)OC2=O)cn1 | 4.8 | 24 L/h/kg | 0.014 µM | – | – | – | – | – | – | –
Cc1cnc(N2C[C@@]3(CCC[C@](C)(Cn4cnc5ccc(C#N)cc54)C3)OC2=O)cn1 | 4.2 | – | 0.06 µM | – | – | – | – | – | – | –
CC(C)(C)CN1C[C@@]2(CCC[C@](C)(Cn3cnc4ccc(C#N)cc43)C2)OC1=O | 4.6 | 27 L/h/kg | 0.0005 µM | 2.1 L/kg | 3.78 L/h/kg | 0.5 h | 32% | 0.14 | – | –
CCOc1ccc(N2C[C@@]3(CCC[C@H](Cn4cnc5ccc(C#N)cc54)C3)OC2=O)cc1 | 4.8 | – | 0.14 µM | – | – | – | – | – | – | –
CCOc1ccc(N2C[C@@]3(CCC[C@](C)(Cn4cnc5ccc(C#N)cc54)C3)OC2=O)nn1 | – | – | 0.06 µM | – | 0.84 L/h/kg | 1.9 h | – | – | – | –
COc1ccccc1N1C[C@@]2(CCC[C@](C)(Cn3cnc4ccc(C#N)cc43)C2)OC1=O | 4.6 | 43.2 L/h/kg | 0.0012 µM | 1.4 L/kg | 1.56 L/h/kg | 1 h | 100% | 0.036 | – | –
C[C@]1(Cn2cnc3ccc(C#N)cc32)CCC[C@@]2(CN(c3ccccc3)C(=O)O2)C1 | – | – | 0.049 µM | – | – | – | – | – | – | –
CCOc1cccc(N2C[C@@]3(CCC[C@H](Cn4cnc5ccc(C#N)cc54)C3)OC2=O)c1 | 5 | – | 0.074 µM | – | – | – | – | – | – | –
C[C@]1(Cn2cnc3ccc(C#N)cc32)CCC[C@@]2(CN(c3ccccc3F)C(=O)O2)C1 | 4.9 | – | 0.0052 µM | – | – | – | – | – | – | –
Cc1ccccc1N1C[C@@]2(CCC[C@H](Cn3cnc4ccc(C#N)cc43)C2)OC1=O | 4.6 | – | 0.31 µM | – | – | – | – | – | – | –
CCOc1ccc(N2C[C@@]3(CCC[C@](C)(Cn4cnc5ccc(C#N)cc54)C3)OC2=O)cc1 | 5.4 | – | 0.0052 µM | 7.2 L/kg | 8.4 L/h/kg | 0.9 h | 29% | – | – | –
CCOc1ccc(N2C[C@@]3(CCC[C@](C)(Cn4cnc5ccc(C#N)cc54)C3)OC2=O)cn1 | – | – | 0.0031 µM | – | 1.44 L/h/kg | 1.6 h | – | 0.031 | – | –
CC(C)(C)c1cnc(N2C[C@@]3(CCC[C@](C)(Cn4cnc5ccc(C#N)cc54)C3)OC2=O)cn1 | 6.3 | – | 0.0012 µM | – | – | – | – | – | – | –
C[C@]1(Cn2cnc3ccc(C#N)cc32)CCC[C@@]2(CN(c3ccc(F)cc3)C(=O)O2)C1 | 4.9 | – | 0.096 µM | 6.5 L/kg | 2.34 L/h/kg | 2.8 h | 100% | – | – | –
CC(C)(C)N1C[C@@]2(CCC[C@H](Cn3cnc4ccc(C#N)cc43)C2)OC1=O (racemic) | 4 | – | 5.2 µM | 1.8 L/kg | 3.3 L/h/kg | 0.5 h | 44% | – | – | –

Now from value to molecule:

ChromLogD [1] | CL free [2] | IC50 [3] | Vd [4] | clearance [5] | MRT [6] | bioavailability [7] | fraction unbound [8] | IC50 [9] | Vduss [10] | Compound
4.2 | – | 0.34 µM | – | – | – | – | – | – | – | COc1ccccc1N1C[C@@]2(CCC[C@H](Cn3cnc4ccc(C#N)cc43)C2)OC1=O
5.7 | – | 0.048 µM | – | – | – | – | – | – | – | C[C@]1(Cn2cnc3ccc(C#N)cc32)CCC[C@@]2(CN(c3cccc(Cl)c3)C(=O)O2)C1
5.5 | 27.6 L/h/kg | 0.0042 µM | 5.4 L/kg | 1.02 L/h/kg | 5.2 h | 100% | 0.037 | – | – | CCOc1cnc(N2C[C@@]3(CCC[C@](C)(Cn4cnc5ccc(C#N)cc54)C3)OC2=O)cn1
4.8 | – | 0.0025 µM | – | – | – | – | – | – | – | C[C@]1(Cn2cnc3ccc(C#N)cc32)CCC[C@@]2(CN(c3ccccc3Cl)C(=O)O2)C1
4.2 | – | 0.54 µM | – | – | – | – | – | – | – | N#Cc1ccc2ncn(C[C@H]3CCC[C@]4(C3)CN(c3ccccc3F)C(=O)O4)c2c1
5.3 | – | 0.0016 µM | – | – | – | – | – | – | – | CCOc1cccc(N2C[C@@]3(CCC[C@](C)(Cn4cnc5ccc(C#N)cc54)C3)OC2=O)c1
4.3 | – | 0.063 µM | – | – | – | – | – | – | – | N#Cc1ccc2ncn(C[C@H]3CCC[C@]4(C3)CN(c3ccccc3Cl)C(=O)O4)c2c1
5.3 | 20.4 L/h/kg | 0.0015 µM | – | – | – | – | – | – | – | C[C@]1(Cn2cnc3ccc(C#N)cc32)CCC[C@@]2(CN(c3cnc(C4CC4)cn3)C(=O)O2)C1
4.8 | – | 0.0017 µM | – | – | – | – | – | – | – | Cc1ccccc1N1C[C@@]2(CCC[C@](C)(Cn3cnc4ccc(C#N)cc43)C2)OC1=O
4.5 | 12 L/h/kg | 0.016 µM | 2.6 L/kg | 3.84 L/h/kg | 0.7 h | 63% | 0.32 | 0.0055 µM | 8.1 L/kg | CC(C)(C)CN1C[C@@]2(CCC[C@H](Cn3cnc4ccc(C#N)cc43)C2)OC1=O
4.6 | – | 0.82 µM | – | – | – | – | – | – | – | N#Cc1ccc2ncn(C[C@H]3CCC[C@]4(C3)CN(c3ccccc3)C(=O)O4)c2c1
5.3 | – | 0.24 µM | – | – | – | – | – | – | – | N#Cc1ccc2ncn(C[C@H]3CCC[C@]4(C3)CN(c3cccc(Cl)c3)C(=O)O4)c2c1
4.5 | 21 L/h/kg | 1.9 µM | 4 L/kg | 1.38 L/h/kg | 3.1 h | 100% | 0.065 | – | 61 L/kg | N#Cc1ccc2ncn(C[C@H]3CCC[C@]4(C3)CN(c3ccc(F)cc3)C(=O)O4)c2c1 (racemic)
4.6 | – | > 25 µM | 1.1 L/kg | 4.2 L/h/kg | 0.3 h | 8% | – | – | – | CC(C)(C)CN1C[C@@]2(CCC[C@H](C(C)(C)n3cnc4ccc(C#N)cc43)C2)OC1=O (racemic)
4 | 4.74 L/h/kg | 0.0018 µM | 1.9 L/kg | 0.39 L/h/kg | 4.9 h | 59% | 0.082 | 0.0016 µM | – | CC(C)(O)c1cnc(N2C[C@@]3(CCC[C@](C)(Cn4cnc5ccc(C#N)cc54)C3)OC2=O)cn1 [GSK2798745]

Source: ChEMBL document CHEMBL4304797, “Discovery of GSK2798745: A Clinical Candidate for Inhibition of Transient Receptor Potential Vanilloid 4 (TRPV4)” (ACS Med Chem Lett, 2019)
